According to article PMC12408501, “A novel fluorescent probe, triphenylamine rhodamine-3-acetic acid (mRA) for the detection of Amyloid-β aggregates in Alzheimer's disease” (Frontiers in Neuroscience, 2025):

Molecular target: T1, Amyloid-β (Aβ1-42) aggregates (Homo sapiens, UniProt P05067)
T1 construct: gene APP; Aβ1-42 (aggregates)
Assay: fluorescence enhancement titration (supported by far-UV CD and van't Hoff analysis)
Format: binding

T1 sequence (P05067 672-713): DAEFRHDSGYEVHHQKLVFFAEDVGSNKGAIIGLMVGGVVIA

With `O=C(O)CN1C(=O)/C(=C/c2ccc(N(c3ccccc3)c3ccccc3)cc2)SC1=S` [mRA, triphenylamine rhodamine-3-acetic acid] the Kd was 341 ± 17 nM.
